The text below walks through data of ChEMBL document CHEMBL1177720, “Selective hexapeptide agonists and antagonists for human complement C3a receptor” (J Med Chem, 2010).

Assay [1] deals with T1, C5a anaphylatoxin chemotactic receptor 1 (Homo sapiens) (UniProt P21730).
T1 sequence (whole entry): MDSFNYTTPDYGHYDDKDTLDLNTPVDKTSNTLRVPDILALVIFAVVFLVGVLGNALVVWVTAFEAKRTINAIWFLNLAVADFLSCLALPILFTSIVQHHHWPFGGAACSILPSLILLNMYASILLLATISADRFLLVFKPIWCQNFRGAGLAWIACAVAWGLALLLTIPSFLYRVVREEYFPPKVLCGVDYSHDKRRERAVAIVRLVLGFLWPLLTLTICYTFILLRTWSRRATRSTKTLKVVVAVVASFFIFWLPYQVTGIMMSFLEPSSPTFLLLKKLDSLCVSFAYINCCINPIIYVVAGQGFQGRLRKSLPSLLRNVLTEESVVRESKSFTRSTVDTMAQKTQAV
The experiment in a line: Displacement of […] from C5a receptor in human PBMC at 1 mM by scintillation counting.

Assay [2] addresses T2, C3a anaphylatoxin chemotactic receptor (Homo sapiens) (UniProt Q16581).
T2 sequence (whole entry): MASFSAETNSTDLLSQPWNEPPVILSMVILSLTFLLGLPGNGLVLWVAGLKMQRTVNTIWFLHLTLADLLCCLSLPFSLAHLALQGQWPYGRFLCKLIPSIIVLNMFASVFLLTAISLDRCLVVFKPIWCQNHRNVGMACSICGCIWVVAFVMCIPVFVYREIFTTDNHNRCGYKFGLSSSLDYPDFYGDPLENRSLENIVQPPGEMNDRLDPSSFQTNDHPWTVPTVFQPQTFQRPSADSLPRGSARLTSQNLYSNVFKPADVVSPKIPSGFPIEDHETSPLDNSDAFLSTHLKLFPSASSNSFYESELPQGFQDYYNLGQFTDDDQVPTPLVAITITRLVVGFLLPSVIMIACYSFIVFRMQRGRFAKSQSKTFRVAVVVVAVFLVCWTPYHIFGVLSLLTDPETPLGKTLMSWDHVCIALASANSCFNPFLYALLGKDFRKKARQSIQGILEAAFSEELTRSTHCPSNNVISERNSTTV
Briefly: Agonist activity at human C3a receptor in human U937 cells assessed as induction of intracellular calcium release at 1 mM. In kind it is functional, cell-based. The following applies: U-937.

The species named for assay [3] is Homo sapiens. Briefly: Selectivity for human C3a receptor over human C5a receptor.
Assay [4] addresses T3, C3a anaphylatoxin chemotactic receptor (Homo sapiens, UniProt Q16581).
T3 sequence (Q16581 whole entry): T2 sequence (whole entry)
Briefly: Displacement of [125I-C3a] from C3a receptor in human PBMC by scintillation counting. To be noted: read-out: IC50.

In assay [5] the target is T3, C3a anaphylatoxin chemotactic receptor. Briefly: Antagonist activity at human C3a receptor in human U937 cells assessed as inhibition of intracellular calcium mobilization. In kind it is functional, cell-based, U-937. A general note: Calcium flux is commonly read through the fluorescence of an indicator in the cells.
Assay [6] addresses T2, C3a anaphylatoxin chemotactic receptor (Homo sapiens). Briefly: Agonist activity at human C3a receptor in human U937 cells assessed as induction of intracellular calcium release at 100 uM. To be noted: U-937. In kind it is functional, cell-based.
Assay [7] has the same target. The experiment in a line: Agonist activity at human C3a receptor in human U937 cells assessed as induction of intracellular calcium release at 10 uM. In kind it is functional, cell-based. The following applies: U-937.
Assay [8] has the same target. The experiment in a line: Displacement of [125I-C3a] from C3a receptor in human PBMC at 1 mM by scintillation counting.
The target in assay [9] is T3, C3a anaphylatoxin chemotactic receptor. Briefly: Agonist activity at human C3a receptor in human U937 cells assessed as induction of intracellular calcium release. In kind it is functional, cell-based, U-937. To be noted: read-out: EC50.
Assay [10] deals with T4, C5a anaphylatoxin chemotactic receptor 1 (Homo sapiens, UniProt P21730).
T4 sequence (P21730 whole entry): T1 sequence (whole entry)
The experiment in a line: Displacement of [125I-C5a] from C5a receptor in human PBMC by scintillation counting. On the technique in general: Displacement assays read how much labelled ligand stays bound in the presence of the test substance.

The term IC50 denotes the point on the concentration scale where inhibition reaches its midpoint. Broadly, the EC50 is the concentration that produces a half-maximal response.

Each structure is given as a SMILES string. Calls of active or inactive are those of the source. No cut-off for these calls is given here. Peptide text beside a SMILES is read from it.

In the case of `CC(C)C[C@H](NC(=O)[C@@H](N)Cc1ccccc1)C(=O)N[C@H](C(=O)N[C@@H](CC1CCCCC1)C(=O)N[C@@H](C)C(=O)N[C@@H](CCCNC(=N)N)C(=O)O)[C@@H](C)O`, the outcome in assay [1], in [2] and in assay [6] was inactive. The Selectivity ratio in [3] is greater than 100. The IC50 in [4] is 238 nM; in assay [5], 240 nM.

Turning to `N=C(N)NCCC[C@H](NC(=O)COCC(c1ccccc1)c1ccccc1)C(=O)O`, the result in [1], in [2] and in assay [7] was inactive. Besides, the IC50 in assay [4] was found to be 140 nM; in assay [5] it was 1300 nM.

For `CC(=O)N[C@@H](Cc1ccccc1)C(=O)N[C@H]1CCCNC(=O)[C@H](CCCN=C(N)N)NC(=O)[C@H](Cc2c[nH]c3ccccc23)NC(=O)[C@@H](CC2CCCCC2)NC(=O)[C@@H]2CCCN2C1=O`, the outcome in assay [2] and in assay [8] was inactive.

Consider `CSCC[C@H](NC(=O)[C@@H]1CCCN1C(=O)[C@H](CCCCN)NC(=O)[C@H](Cc1cnc[nH]1)NC(=O)[C@H](CO)NC(=O)[C@@H](N)Cc1ccc(O)cc1)C(=O)N1CCC[C@H]1C(=O)N[C@@H](CC(C)C)C(=O)N[C@H](C)C(=O)N[C@@H](CCCNC(=N)N)C(=O)O`, for which the result in assay [1] and in [8] was inactive.

In the case of `CC[C@H](C)[C@H](NC(=O)[C@H](C)NC(=O)[C@H](CC(N)=O)NC(=O)[C@@H](NC(=O)[C@@H](NC(=O)[C@H](CCCNC(=N)N)NC(=O)[C@H](CCCCN)NC(=O)[C@H](C)NC(=O)[C@H](CCC(=O)O)NC(=O)[C@H](Cc1ccccc1)NC(=O)[C@H](C)NC(=O)[C@@H](NC(=O)[C@@H](NC(=O)[C@@H](N)Cc1c[nH]c2ccccc12)C(C)C)[C@@H](C)O)[C@@H](C)O)[C@@H](C)CC)C(=O)N[C@@H](Cc1c[nH]c2ccccc12)C(=O)O` (H-WVTAFEAKRTINAIW-OH), the EC50 in assay [9] came out at 24000 nM. Besides, the IC50 worked out at 1700 nM in [10] and 1600 nM in [4].

For `CC(C)C[C@H](NC(=O)[C@@H]1CCCN1C(=O)[C@@H](N)Cc1ccc(O)cc1)C(=O)N1CCC[C@H]1C(=O)N[C@@H](CCCNC(=N)N)C(=O)O` (H-YPLPR-OH), the result in assay [1], in assay [2], in [8] and in assay [7] was inactive.
